Assay results from patent publication US6093732A, “4-hydroxyquinoline-3-carboxamides and hydrazides as antiviral agents” (Pharmacia & Upjohn Company, priority 1998, dated 2000).

Biological target: T1, HCMV polymerase (Human cytomegalovirus, UniProt P08546)
T1 construct: made in house; host or cells: recombinant baculovirus-infected SF-9 cells
Assay: HCMV polymerase scintillation proximity assay (SPA), modified version
Assay type: biochemical
Conditions: CMV polymerase; Table 1; modified assay with 4.5 mM DTT, compounds in 100% DMSO; read-out: Antiviral Selective Polymerase IC50 Values, CMV
In short: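 Recombinant polymerase (baculovirus/SF-9) in 5.4 mM HEPES pH 7.5, 11.7 mM KCl, 4.5 mM MgCl2, 0.36 mg/ml BSA, 90 nM 3H-dTTP, ±2 mM CHAPS; started with 6 nM biotinylated poly(dA)-oligo(dT), 25° C or 37° C, EDTA-stopped in linear range (30 min for HCMV). Streptavidin-SPA read; IC50 by linear regression. Modified version: 100% DMSO compound dilution, 4.5 mM DTT added.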

T1 sequence (P08546 whole entry): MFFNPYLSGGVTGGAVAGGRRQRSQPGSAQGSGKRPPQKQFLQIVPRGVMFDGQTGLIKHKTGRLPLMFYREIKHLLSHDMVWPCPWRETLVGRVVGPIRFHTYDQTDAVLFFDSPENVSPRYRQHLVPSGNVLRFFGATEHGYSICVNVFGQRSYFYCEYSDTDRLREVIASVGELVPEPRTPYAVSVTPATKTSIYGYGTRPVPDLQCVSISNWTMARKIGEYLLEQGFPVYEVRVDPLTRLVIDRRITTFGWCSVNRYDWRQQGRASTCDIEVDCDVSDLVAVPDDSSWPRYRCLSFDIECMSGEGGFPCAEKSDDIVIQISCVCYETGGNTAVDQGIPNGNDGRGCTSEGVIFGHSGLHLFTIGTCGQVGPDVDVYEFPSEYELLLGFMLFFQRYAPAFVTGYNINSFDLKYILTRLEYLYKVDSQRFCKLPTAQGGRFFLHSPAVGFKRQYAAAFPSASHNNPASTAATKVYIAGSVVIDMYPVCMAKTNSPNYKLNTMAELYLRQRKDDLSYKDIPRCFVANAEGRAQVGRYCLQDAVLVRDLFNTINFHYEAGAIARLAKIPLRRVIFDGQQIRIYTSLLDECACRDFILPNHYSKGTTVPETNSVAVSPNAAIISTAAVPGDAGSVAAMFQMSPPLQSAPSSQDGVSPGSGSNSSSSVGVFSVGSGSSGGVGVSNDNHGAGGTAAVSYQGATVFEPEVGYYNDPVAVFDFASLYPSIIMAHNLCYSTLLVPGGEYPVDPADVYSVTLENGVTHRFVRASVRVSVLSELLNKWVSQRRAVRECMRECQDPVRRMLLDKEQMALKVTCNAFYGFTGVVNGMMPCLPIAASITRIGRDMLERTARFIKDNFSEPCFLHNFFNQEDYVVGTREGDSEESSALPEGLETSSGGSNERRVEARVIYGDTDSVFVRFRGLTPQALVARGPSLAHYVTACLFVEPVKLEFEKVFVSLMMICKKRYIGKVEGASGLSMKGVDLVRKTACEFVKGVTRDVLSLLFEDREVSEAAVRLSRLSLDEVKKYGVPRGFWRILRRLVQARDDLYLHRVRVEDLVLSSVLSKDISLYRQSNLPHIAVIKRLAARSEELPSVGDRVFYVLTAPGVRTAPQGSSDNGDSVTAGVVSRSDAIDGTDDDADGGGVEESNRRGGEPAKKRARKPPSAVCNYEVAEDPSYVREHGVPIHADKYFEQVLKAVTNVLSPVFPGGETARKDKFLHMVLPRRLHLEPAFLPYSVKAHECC

CC(C)(C)OC(=O)CNS(=O)(=O)c1cc(F)c2ncc(C(=O)NCc3ccc(Cl)cc3)c(O)c2c1 [Example 257, tert-butyl 2-{[(3-{[(4-chlorobenzyl)amino]carbonyl}-8-fluoro-4-hydroxy-6-quinolinyl)sulfonyl]amino}acetate]
IC50: 16.3 µM

CC(C)(C)OC(=O)CCNS(=O)(=O)c1cc(F)c2ncc(C(=O)NCc3ccc(Cl)cc3)c(O)c2c1 [Example 258, tert-butyl 3-{[(3-{[(4-chlorobenzyl)amino]carbonyl}-8-fluoro-4-hydroxy-6-quinolinyl)sulfonyl]amino}propanoate]
IC50: 15.2 µM

O=C(NCc1ccc(Cl)cc1)c1cnc2c(F)cc(S(=O)(=O)NCc3cccc(OC(F)(F)F)c3)cc2c1O [Example 259, N-(4-chlorobenzyl)-8-fluoro-4-hydroxy-6-({[3-(trifluoro-methoxy)benzyl]amino}sulfonyl)-3-quinolinecarboxamide]
IC50: 6.1 µM

O=C(NCc1ccc(Cl)cc1)c1cnc2c(F)cc(S(=O)(=O)NCc3ccccc3Sc3ccccc3CO)cc2c1O [Example 260]
IC50: 5.7 µM

O=C(NCc1ccc(Cl)cc1)c1cnc2c(F)cc(S(=O)(=O)NCc3ccc(-c4csnn4)cc3)cc2c1O [Example 261, N-(4-chlorobenzyl)-8-fluoro-4-hydroxy-6-({[4-(1,2,3-thiadiazol-4-yl)benzyl]amino}sulfonyl)-3-quinolinecarboxamide]
IC50: 15.1 µM

O=C(NCc1ccc(Cl)cc1)c1cnc2c(F)cc(S(=O)(=O)NCc3ccc(Cl)cc3F)cc2c1O [Example 262, N-(4-chlorobenzyl)-6-{[(4-chloro-2-fluorobenzyl)amino]sulfonyl}-8-fluoro-4-hydroxy-3-quinolinecarboxamide]
IC50: 9.9 µM

O=C(NCc1ccc(Cl)cc1)c1cnc2c(F)cc(S(=O)(=O)NCCSCCO)cc2c1O [Example 263, N-(4-chlorobenzyl)-8-fluoro-4-hydroxy-6-[({2-[(2-hydroxyethyl)-sulfanyl]ethyl}amino)sulfonyl]-3-quinolinecarboxamide]
IC50: 23.1 µM

CC(C)(N)CNS(=O)(=O)c1cc(F)c2ncc(C(=O)NCc3ccc(Cl)cc3)c(O)c2c1 [Example 264, 6-{[(2-amino-2-methylpropyl)amino]sulfonyl}-N-(4-chlorobenzyl)-8-fluoro-4-hydroxy-3-quinolinecarboxamide]
IC50: 90.2 µM

NC(=O)CNS(=O)(=O)c1cc(F)c2ncc(C(=O)NCc3ccc(Cl)cc3)c(O)c2c1 [Example 265, 6-{[(2-amino-2-oxoethyl)amino]sulfonyl}-N-(4-chlorobenzyl)-8-fluoro-4-hydroxy-3-quinolinecarboxamide]
IC50: 11.4 µM

Nc1ccc(CNS(=O)(=O)c2cc(F)c3ncc(C(=O)NCc4ccc(Cl)cc4)c(O)c3c2)cc1 [Example 266, 6-{[(4-aminobenzyl)amino]sulfonyl}-N-(4-chlorobenzyl)-8-fluoro-4-hydroxy-3-quinolinecarboxamide]
IC50: 10.1 µM

CC(C)(C)OP(=O)(OCCCc1cc(F)c2ncc(C(=O)NCc3ccc(Cl)cc3)c(O)c2c1)OC(C)(C)C [Example 267, Di(tert-butyl) 3-(3-{[(4-chlorobenzyl)amino]carbonyl}-8-fluoro-4-hydroxy-6-quinolinyl)propyl phosphate]
IC50: 52.2 µM

O=C(NCc1ccc(Cl)cc1)c1cnc2c(F)cc(CCCOP(=O)(O)O)cc2c1O [Example 268, 3-(3-{[(4-Chlorobenzyl)amino]carbonyl}-8-fluoro-4-hydroxy-6-quinolinyl)propyl dihydrogen phosphate]
IC50: 9.5 µM

O=C(NCc1ccc(Cl)cc1)c1cnc2ccc(CCCOP(=O)(O)O)cc2c1O [Example 269, 3-(3-{[(4-Chlorobenzyl)amino]carbonyl-4-hydroxy-6-quinolinyl)propyldihydrogen phosphate]
IC50: 9.8 µM

CC(C)(C)O[PH](=O)OCCCc1ccc2ncc(C(=O)NCc3ccc(Cl)cc3)c(O)c2c1 (centres unmarked) [Example 270, tert-Butyl 3-(3-{[(4-chlorobenzyl)amino]carbonyl}-4-hydroxy-6-quinolinyl)propyl phosphonate]
IC50: 2.8 µM
